Reference: patent US10968196B2, “Substituted β-lapachones for treating cancer” (University of Pittsburgh—Of the Commonwealth System of …, priority 2015, dated 2021)

What was measured:
Assay type in all cases: cell-based
[1] = system: 983B melanoma cells; assay: CellTiter-Blue cell viability assay, 24 h treatment; settings: 983B cells, indicated concentrations, 24 h (FIG. 3B)
Method: (§1) (3A) A549 non-small cell lung cancer cells were treated with XJB-OMe, 3-hydroxy-β-lapachone (14), or XJB-lapachone (18) at indicated concentrations for 24 h. Cell viability was determined by a CellTiter-Blue assay. Data represents the mean±SEM. (3B) PEO1 ovarian cancer cells, MDA-MB-231 breast cancer cells, and 983B melanoma cells were treated with XJB-lapachone (18) at indicated concentrations for 24 h. Cell viability was determined by a CellTiter-Blue assay. Data represents the mean±SEM. (3C) Equal numbers of A549 and IMR90 lung fibroblast cells were treated with 10 μM XJB-lapachone (18) for 4 h. XJB-lapachone was then washed away and cells were incubated in drug free media for 3 days. Cell viability was determined by a CellTiter-Blue assay. (3D) A549 cells were treated with XJB-OMe, 3-hydroxy-β-lapachone (14), or XJB-lapachone (18) at 6 μM concentrations for 20 h. The formation of vacuoles was examined by phase contrast microscopy. Representative images are shown. (3E) A549 cells were treated as described above. Apoptotic and necrotic cell death were determined by Annexin V and PI staining. Representative images are shown.
(§2) Cell culture: A549 non-small cell lung cancer cells and MDA-MB-231 breast carcinoma cells were obtained from American Type Culture Collection (ATCC). Ovarian cancer cells PEO1 were kindly provided by Dr. Karyn J. Hansen (Magee-Womens Hospital of UPMC). 983B melanoma cells were kindly provided by Dr. Stergios J. Moschos (University of North Carolina). IMR90 normal lung fibroblast cells were kindly provided by Dr. Christopher Bakkenist (University of Pittsburgh Cancer Institute). Cells were cultured in either RPMI 1640 or DMEM media supplemented with 10% heat-inactivated fetal calf serum and 1% penicillin-streptomycin in 5% CO2 at 37° C.
(§3) Cell viability and apoptosis assays: Cell viability was determined using a CellTiter-Blue Cell Viability Assay (Promega, Madison, Wis.). The survival fractions were calculated after setting untreated control cells at 100%. An FITC Annexin V Apoptosis Detection Kit (BD PharMingen, San Diego, Calif.) was used to quantify apoptotic cells and necrotic cells, according to the manufacturer's instructions.
(§4) In order to investigate the cellular toxicity of 18 (XJB-lapachone), A549 nonsmall cell lung cancer cells were treated with various concentrations of XJB-lapachone for 24 h, and compared its effect with XJB-OMe (the mitochondrial targeting moiety) and unconjugated 3-hydroxy-β-lapachone (14). […] Furthermore, XJB-lapachone is also effective against other types of tumor cells, including PEO1 ovarian cancer cells, MDA-MB-231 breast cancer cells, and 983B melanoma cells (FIG. 3B). […] Tumor selectivity of β-lapachone, and whether the same is maintained after XJB conjugation, was examined. The cytotoxic effect of XJB-lapachone on A549 lung cancer and non-transformed human lung fibroblast cells IMR90 was determined by a cell growth/death assay.

[2] = system: PEO1 ovarian cancer cells; assay: as above; settings: indicated concentrations, 24 h (FIG. 3B)
Method: as §1, §2, §3, §4

[3] = system: MDA-MB-231 breast cancer cells; assay: as above; settings: MDA-MB-231 cells (NQO1 deficient), indicated concentrations, 24 h (FIG. 3B)
Method: as §1, §2, §3, §4

[4] = system: A549 non-small cell lung cancer cells; assay: as above; settings: various concentrations, CellTiter-Blue (FIG. 3A)
Method: as §1, §2, §3, §4

[5] = system: A549 non-small cell lung cancer cells; assay: Colony forming capacity (crystal violet) 10 days after drug treatment
Method: Drug efficacy was determined by colony forming capacity using crystal violet 10 days after drug treatment.
A549 non-small cell lung cancer cells were treated with XJB-lapachone alone or combination with cisplatin or etoposide for 4 h at concentrations indicated in FIG. 10. Drug efficacy was determined by colony forming capacity 10 days after drug treatment.
A549 cells were treated with XJB-lapachone for 4 h. XJB-lapachone was then washed away before IR exposure (gamma-irradiation with a Shepherd Mark I Model 68 [^137Cs] irradiator) at 0, 1, 2, 4, and 6 Gy (grays). The number of colonies was counted 10 days after IR exposure (FIG. 11).

[6] = system: A549 cells; assay: Vacuole formation by phase contrast microscopy; settings: A549, 6 μM, 20 h, phase contrast microscopy (FIG. 3D)
Method: as §1
Microscopy: For vacuole imaging, A549 cells were plated in 12-well plate, treated with compounds and the phase contrast images were captured using a Nikon Eclipse TS100 inverted microscope. […]

[7] = system: A549 cells; assay: Oxygen consumption rate, Seahorse extracellular flux analysis; settings: A549, 6 μM, 16 h, Seahorse (FIG. 4B)
Method: (4A) A549 cells were treated with XJB-OMe, 3-hydroxy-β-lapachone (14), or XJB-lapachone (18) at 6 μM for 16 h. The generation of ROS was determined by staining cells with MitoSox and DCFHDA. The fluorescence intensity was measured by flow cytometry. Data represents the mean±S.D. of triplicates. (4B) A549 cells were treated as described in A, and the oxygen consumption rate was determined by a Seahorse extracellular flux analyzer. […] (4C) A549 cells were treated as described in A, and mitochondria morphology was examined by electron microscopy. Representative images are shown. (4D) A549 cells were treated as described above. The expression of the autophagy marker LC3 was examined by western blot. β-actin was used as a loading control. Representative images are shown.
Extracellular flux (XF) analysis: Oxygen consumption rate (OCR) was measured using a Seahorse XF96 Extracellular Flux Analyzer (Seahorse Bioscience, North Billerica, Mass.), as previously described (Qian W, et al., Alterations in bioenergetics due to changes in mitochondrial DNA copy number. Methods 2010 51:452-457). Briefly, A549 cells were plated in a 6-well plate and treated with compounds for 16 h. After treatment, cells were trypsinized, counted, and plated at 40,000 cells per well in a XF96 microplate using Cell-Tak cell adhesive. OCR measurements were then performed using a XF96 analyzer.

[8] = system: A549 cells; assay: Annexin V and PI staining (apoptotic and necrotic cell death); settings: A549, 6 μM, 20 h, compared to unconjugated 3-hydroxy-β-lapachone (FIG. 3E)
Method: as §1, with “The formation of vacuoles was examined by phase contrast microscopy. Representative images are shown. (3E) A549 cells were treated as described above.” left out, “Representative images are shown.” left out
as §3

Structure (SMILES): CC(C)C[C@@H](/C=C/[C@H](Cc1ccccc1)C(=O)N1CCC[C@H]1C(=O)N[C@H](C(=O)N[C@@H](CCCNC(=O)OCc1ccccc1)C(=O)NCCC(=O)OC1CC2=C(OC1(C)C)c1ccccc1C(=O)C2=O)C(C)C)NC(=O)OC(C)(C)C (stereo partly drawn) [XJB-lapachone, 2,2-Dimethyl-5,6-dioxo-3,4,5,6-tetrahydro-2H-benzo[h]chromen-3-yl 3-((S)-2-((S)-2-((S)-1-((2S,5S,E)-2-benzyl-5-((tert-butoxycarbonyl)amino)-7-methyloct-3-enoyl)pyrrolidine-2-carboxamido)-3-methylbutanamido)-5-(((benzyloxy)carbonyl)amino)pentanamido) propanoate]
- cell viability [1]: effective
- cell viability [2]: effective
- cell viability [3]: effective
- cell viability / cytotoxic effect ([4]; listed as XJB-Lapachone): superior compared to unconjugated β-lapachone
- cell viability / cytotoxic effect ([4]; listed as XJBLapachone): reduced cell viability in a dose dependent manner
- colony forming capacity in combination with cisplatin or etoposide ([5]; A549, 4 h, alone or combination with cisplatin or etoposide, 10 days (FIG. 10)): enhances the effect of DNA-damaging anticancer agents
- treatment efficacy by colony forming capacity ([5]; A549, 4 h treatment, colonies 10 days after (FIG. 5)): Higher Treatment Efficacy as Compared to Unconjugated Beta-Lapachone
- number of colonies in combination with ionizing radiation ([5]; A549, 4 h treatment, washed, IR 0-6 Gy, colonies counted 10 days after (FIG. 11)): Synergistic Effect
- vacuolization (formation of vacuoles) [6]: extensive vacuolization
- inhibition of mitochondrial respiration (oxygen consumption) by oligomycin after treatment [7]: can no longer be inhibited by oligomycin
- annexin V positive cells (apoptosis) [8]: more annexin V positive cells were induced
